Measured values as given in patent publication US8802929B2, “MIR164 gene that controls plant root system development and fertility and use thereof” (Huazhong Agricultural University, priority 2009, dated 2014).

Legend:
[1] = test system: transgenic plants overexpressing miR164; assay: Restoration of fertility of transgenic plants overexpressing miR164 by external application of hormones; format: in vivo, rice; settings: two T0 transgenic plants; four phytohormones (IAA, NAA, KT, 6-BA) applied continually from tillering stage to grain filling stage; FIG. 7
Source text: Two T0 transgenic plants overexpressing miR164 were continually subjected to external application of four phytohormones, indoleacetic acid (IAA), naphthaleneacetic acid (NAA), kinetin (KT), and 6-benzylaminopurine (6-BA) from tillering stage to grain filling stage, and compared with the transgenic plants overexpressing miR164 grown normally. […] That the fertility of transgenic rice plants overexpressing miR164 could be restored by external application of hormones can be taken advantage of to conveniently use a transgenic rice plant to breed a sterile line (without application of hormones) or a maintainer line (by external application of hormones to allow the sterile line to produce seeds and to be reproduced; however the next generation is still sterile without externally applied hormones), thereby achieving “the double usage of a single line” for the breeding of hybrid rice.

miR164 = assay: Expression level of mature miR164 after phytohormone treatment, Northern blotting; format: in vivo, rice variety Minghui 63 (Oryza sativa L. ssp. Indica); settings: hormone sprayed onto rice plants at 4-leaf stage; for change in expression of miR164 after phytohormone treatment: leaves, Northern blotting, FIG. 3
Protocol: The indica rice variety “Minghui 63” was used for expression profile analysis. Phytohormone treatment was carried out by evenly spraying the hormones onto the surfaces of the rice plants at the 4-leaf stage obtained from seeds which had been induced to germinate and cultivated under normal growth conditions for 18-20 days. The plants treated with kinetin and gibberellin were sampled before treatment as well as 1 min, 5 min, 10 min, 20 min, 30 min, 1 h, and 3 h after treatment. The plants treated with naphthaleneacetic acid were sampled before treatment as well as 30 min, 3 h, 9 h and 24 h after treatment. The plants treated with brassinolide were sampled before treatment as well as 15 min, 30 min, 1 h, 3 h, 6 h, 9 h and 21 h after treatment. Light treatment of etiolated shoots was performed by subjecting seeds to induction of germination and continuous cultivation in dark for 14 days followed by transferring the etiolated shoots to normal lighting conditions. Samples were taken before light treatment as well as 3 h, 6 h and 9 h after light treatment. Total RNA was extracted from leaves using Trizol reagent (Invitrogen Corp.), and then transferred to membrane as described by Xie et al. (Xie K, Wu C, and Xiong L. Genomic organization, differential expression, and interaction of SQUAMOSA promoter-binding-like transcription factors and microRNA156 in rice. Plant Physiol, 2006, 142: 280-293). Northern hybridization was performed using miR164 as the probe. […] The expression level of miR164 increased 24 hours after naphthaleneacetic acid (NAA) treatment.

rice pollens = assay: Fertility phenotype of transgenic plants overexpressing miR164 (iodine staining of pollens); format: in vivo; settings: overexpression under ubiquitin promoter; FIG. 6
Source text: This abnormality made the glumes unable to open such that the filaments, although elongated, could not extend out of the glumes (FIG. 6B). […] Moreover, the ovaries of most of the transgenic plants overexpressing miR164 stopped growing or even died (FIG. 6C to 6E). The development of anthers in the transgenic plants overexpressing miR164 was abnormal. […] The pollens of the transgenic plants overexpressing miR164 were not in the normal globular shape, but were shrunken (FIG. 6F to 6K). […] The sterility of the transgenic plants overexpressing miR164 could be utilized to conveniently breed a rice sterile line for hybrid rice breeding.

rice root system = assay: Root system phenotype of transgenic plants overexpressing miR164 on 1/2 MS medium; format: in vivo; settings: overexpression under ubiquitin promoter; 10 days on 1/2 MS basal media; FIG. 5
Protocol: In this example, transgenic plants overexpressing miR164 (FIG. 4) and wild-type plants were grown in ½ MS medium and observed for their phenotypes. The procedure was carried out as follows, Rice seeds from transgenic lines overexpressing miR164 were husked and disinfected (75% alcohol treatment for 3 minutes followed by 0.15% HgCl2 treatment for 30 minutes, and rinsed with sterile water for several times), and then allowed to germinate on the ½ MS basal media containing 50 mg/L hygromycin. One day later, the rice seeds from wild-type control lines were placed on the ½ MS basal media without hygromycin and allowed to germinate. Two to three days later, well germinated and consistently grown seeds were transferred to ½ MS basal media and cultivated in an illumination incubator (which simulated natural growth condition of 14-hour light and 10-hour darkness) for 10 days for phenotype observation. More than 30 plants were selected for each of the transgenic and wild-type plant lines, and each experiment was run in triplicate.

| Molecule | seed production of transgenic plants overexpressing miR164 after external application of hormones [1] | change in expression of miR164 after phytohormone treatment (miR164) | also measured |
| --- | --- | --- | --- |
| c1ccc(CNc2ncnc3nc[nH]c23)cc1 [6-benzylaminopurine, 6-Benzylaminopurine] | produce seeds normally |  |  |
| c1coc(CNc2ncnc3[nH]cnc23)c1 [Kinetin] | produce seeds normally | decreased gradually |  |
| CC(C)[C@H](C)[C@@H](O)[C@H](O)[C@@H](C)[C@H]1CC[C@H]2[C@@H]3COC(=O)[C@H]4C[C@H](O)[C@H](O)C[C@]4(C)[C@H]3CC[C@]12C [brassinolide] |  | no obvious change |  |
| O=C(O)Cc1c[nH]c2ccccc12 [indoleacetic acid, Indole-3-acetic acid] | produce seeds normally |  |  |
| gibberellin |  | increased | time of peak miR164 expression after treatment (miR164; then dropping to the level before treatment): 10 min |
| miR164: mature microRNA (SEQ ID NO: 2) from the rice miR164 gene (SEQ ID NO: 1), overexpressed in rice under a ubiquitin promoter (UGGAGAAGCAGGGCACGUGCA; listed as Oryza sativa) |  |  | pollen fertility of transgenic plants (iodine staining) (rice pollens): completely sterile; root system of transgenic plants versus wild-type plants (rice root system): obviously larger root systems |
